Patent US11434537B2, “Biomarker for prognosis of colorectal cancer” (NATIONAL CHENG KUNG UNIVERSITY, priority 2020, dated 2022)

Key:
Format in all cases: cell-based, human
LC3-II = assay: Western blot of LC3-II (autophagy); conditions: 10 μM, 48 h, CRC cells (SW480, HCT116)
Description: (§1) FIGS. 14(a) to 14(f) show the involvement of autophagy in miR-338-5p-related CRC migration and invasion in vitro. […] LC3 puncta were labelled with anti-LC3 antibody and fluorescent isothiocyanate-conjugated goat anti-rabbit IgG (green fluorescence). SW480 cell nuclei were stained with Hoechst 33258 (blue fluorescence). Images were photographed using florescent microscopy (the scale bar represents 10 μm). Data are presented as median (IQR) (n=5) (P value was analyzed using Mann-Whitney tests). […] (100 nM). […] Data are presented as median (IQR) (n=5) (P value was analyzed using Mann-Whitney tests). The scale bar represents 50 μm. […] Number of migrated cells was counted after 24 h. The scale bar represents 100 μm. Data are expressed as median (IQR) (n=6) (P value was analyzed using MannWhitney tests). […] The scale bar represents 50 μm. Data are expressed as means±SEM (n=8) (P value was analyzed using t tests).
FIGS. 15(a) to 15(c) show the involvement of autophagy or EMT pathway in miR-338-5p-related CRC migration in vitro. […] Representative results of Transwell assays are also shown. […] Data are presented as means±SEM (n=8) (P values were analyzed using t tests). […] The number of migrated cells is shown as means±SEM (n=8) (P values were analyzed using t tests).
To clarify the mechanism(s) underlying miR-338-5p induced migration and invasion of CRC, the involvement of autophagy was assessed. […]

LC3 puncta = LC3 puncta formation by immunofluorescent assay; conditions: 10 μM, SW480 cells
Description: as §1
(§2) To clarify the mechanism(s) underlying miR-338-5p induced migration and invasion of CRC, the involvement of autophagy was assessed. Specifically, the LC3 puncta (microtubule associated protein 1A/1B-LC3) formation and LC3 type II (LC3-II) protein expression were examined in cells treated with amiodarone (an autophagy inducer) by immunofluorescent assay.

HCT116 cells [1] = assay: Wound-healing and Transwell migration assays, HCT116; conditions: 10 μM for 48 h, HCT116 stable cells, wound healing 24 h (FIG. 14(e))
Description: Then, HCT116 cells transfected with miR-338-5p were assessed for cell migration in vitro with a wound-healing assay analyzed at 24 h and a Transwell assay analyzed at 48 h (Corning, Corning City, N.Y.). Cell invasion in vitro was estimated using a Transwell assay, in which cells were seeded on Transwell columns coated with a Matrigel membrane (BD Biosciences, San Jose, Calif.). Then, cells on the bottom of membrane were counted after 96 h. […] Thus, miR-338-5p promotes CRC migration and invasion in vitro.

HCT116 cells [2] = assay: Transwell invasion assay, HCT116; conditions: amiodarone-treated HCT116 cells, Transwell invasion 48 h (FIG. 14(f))
Description: as §1, §2

SW480 cells = assay: Transwell migration assay, SW480; conditions: 10 μM, Transwell (FIG. 14(c))

CCCCc1oc2ccccc2c1C(=O)c1cc(I)c(OCCN(CC)CC)c(I)c1 [Amiodarone, amiodarone]
LC3-II expression (LC3-II): activated LC3-II expression
LC3 puncta formation (LC3 puncta): induced LC3 puncta formation
cell migration (HCT116 cells [1]): inhibition of cell migration
cell invasion (HCT116 cells [2]): inhibition of cell invasion
cell migration (SW480 cells): inhibition of cell migration
